# Test results published in paper PMC12323621, “Exploring the antimicrobial activity of pantothenamides against uropathogenic Escherichia coli” (Microbiology Spectrum, 2025).
# Read-outs that look alike come from different tables or passages of the source.
# Experiments:
# [1] = Stability in mouse liver homogenate; format: in vitro ADME; conditions: for remaining at 1 h, 10 µM: mouse, liver tissue homogenate (10% wt/vol), 10% wt/vol homogenate, 10 µM compound, 37°C; for stability in mouse liver homogenate: n = 3
# Procedure: (§1) Stability studies were conducted in mouse liver microsomes, mouse liver tissue homogenate, and CD1 mouse plasma as previously described with minor modifications ([54][–][56]). Briefly, for Phase I mouse liver microsome stability, reactions were carried out with 200 mM potassium phosphate buffer, pH 7.4, with or without an NADPH-regenerating system (1.3 mM NADPH, 3.3 mM glucose 6-phosphate, 3.3 mM MgCl2, 0.4 U/mL glucose-6-phosphate dehydrogenase, and 50 µM sodium citrate). Reactions, in triplicate, were initiated by the addition of liver microsomes to the incubation mixture (compound final concentration was 1 µM; 0.2 mg/mL microsomes) and incubated at 37°C for the desired incubation time. For liver stability, the tissue homogenate was prepared by washing tissues with diluted 10-fold 0.1 M potassium phosphate buffer and homogenized using a probe sonicator over ice. To evaluate the stability of the drugs over time, each of the crude homogenates was aliquoted to 1 mL and then spiked with a final assay concentration of 10 µM of each drug, followed by incubation in an orbital shaker at 37°C for 1 h (in triplicate). For plasma stability, 1 mL of plasma was spiked with 10 µM of each drug, followed by incubation in an orbital shaker at 37°C for 1 h (in triplicate). Samples from each metabolism study were quenched with 3× volume of acetonitrile containing internal standard (losartan: 0.5 µM) at the desired incubation times. […] Samples were vortex-mixed for 30 s and centrifuged at 10,000 × g for 10 min at 4°C. Compound disappearance over time was monitored using a Dionex ultra-high-performance liquid chromatography system consisting of an analytical pump and an autosampler coupled with Q Exactive Focus orbitrap mass spectrometer (Thermo Fisher Scientific Inc., Waltham MA). […] The mobile phase used was composed of 0.1% formic acid in water and 0.1% formic acid in acetonitrile with gradient elution. The total run time for each analyte was 5 min.
# (§2) The mass spectrometer was operated with a HESI ion source in positive ionization mode where compounds were identified in the full scan mode (from m/z 75.00–1125.00) and controlled by the Xcalibur software 4.0.27.13 (Thermo Scientific). Data were acquired using Xcalibur software. Drugs were identified in the full-scan mode (from m/z 75.00 to 1125.00) by comparing t = 0 samples with t = 30 or 60 min samples, and structures were proposed based on the accurate mass information. The percentage of compound remaining for pantothenamides 1, 6, and 7 was determined from the analyte/internal standard (IS) area ratios obtained at t = 30 or 60 min relative to the mean ratios obtained at t = 0 min and calculated using equation 1:
# (§3) % Remaining=(Peak area of Analyte/Preak area of ISat t=30 or 60 min/MeanPeak area of Analyte/Peak area of ISat t=0 min)×100
# [2] = Phase I metabolic stability in mouse liver microsomes; format: in vitro ADME; conditions: for remaining at 1 h, 1 µM: mouse, liver microsomes, pH 7.4, 1 h; for stability in mouse liver microsomes: n = 3
# Procedure: as §1, §2, §3
Compound,"remaining at 1 h, 10 µM [1] [%]",stability in mouse liver homogenate [1],"remaining at 1 h, 1 µM ([2]; with NADPH, 1 µM compound, 0.2 mg/mL microsomes, read-out: % remaining in mouse liver microsomes, presence of NADPH) [%]","remaining at 1 h, 1 µM ([2]; without NADPH, 1 µM compound, 0.2 mg/mL microsomes, read-out: % remaining in mouse liver microsomes, absence of NADPH) [%]",stability in mouse liver microsomes [2],"% remaining in mouse liver microsomes, presence of NADPH ([2]; 1 h, with NADPH, 1 µM compound, 0.2 mg/mL microsomes)","% remaining in mouse liver microsomes, absence of NADPH ([2]; 1 h, without NADPH, 1 µM compound, 0.2 mg/mL microsomes)"
"CCCCCNC(=O)CCNC(=O)[C@H](O)C(C)(C)CO [compound 1, N-pentylpantothenamide, reference compound]",17,unstable,90,93,good stability,,
"CCCCCNC(=O)CNC(=O)[C@H](O)C(C)(C)CO [compound 6, N5-α-pantothenamide]",96,good stability,,,good stability,no degradation,no degradation
